Assay results published in PubChem BioAssay (NCI).
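Tested at 5 concentrations; 48 h exposure; 96-well plates; endpoints linearly interpolated, else capped at highest concentration. At the TGI there is no net growth.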

Key:
Assay in all cases: NCI-60 cell line screen, 48 h
SW-620 colon = system: SW-620 colon
SF-268 CNS = system: SF-268 CNS
SK-MEL-5 melanoma = system: SK-MEL-5 melanoma
NCI-H522 lung = system: NCI-H522 lung
A498 renal = system: A498 renal
RXF 393 renal = system: RXF 393 renal
SF-295 CNS = system: SF-295 CNS
COLO 205 colon = system: COLO 205 colon
OVCAR-8 ovarian = system: OVCAR-8 ovarian
CCRF-CEM leukemia = system: CCRF-CEM leukemia
LOX IMVI melanoma = system: LOX IMVI melanoma
NCI-H460 lung = system: NCI-H460 lung
UO-31 renal = system: UO-31 renal
SR leukemia = system: SR leukemia
TK-10 renal = system: TK-10 renal
OVCAR-4 ovarian = system: OVCAR-4 ovarian
SN12C renal = system: SN12C renal
SNB-78 CNS = system: SNB-78 CNS
CAKI-1 renal = system: CAKI-1 renal
KM20L2 colon = system: KM20L2 colon
UACC-257 melanoma = system: UACC-257 melanoma
SNB-19 CNS = system: SNB-19 CNS
K-562 leukemia = system: K-562 leukemia
NCI-H23 lung = system: NCI-H23 lung
DMS 114 small cell lung = system: DMS 114 small cell lung
M14 melanoma = system: M14 melanoma
SK-MEL-28 melanoma = system: SK-MEL-28 melanoma
HOP-62 NSCLC = system: HOP-62 NSCLC
U251 CNS = system: U251 CNS
HT29 colon = system: HT29 colon
EKVX NSCLC = system: EKVX NSCLC
LXFL 529 NSCLC = system: LXFL 529 NSCLC
IGROV1 ovarian = system: IGROV1 ovarian
DMS 273 small cell lung = system: DMS 273 small cell lung
RPMI-8226 leukemia = system: RPMI-8226 leukemia
M19-MEL melanoma = system: M19-MEL melanoma
SNB-75 CNS = system: SNB-75 CNS
OVCAR-3 ovarian = system: OVCAR-3 ovarian
HCT-116 colon = system: HCT-116 colon
HOP-92 NSCLC = system: HOP-92 NSCLC
UACC-62 melanoma = system: UACC-62 melanoma
HL-60(TB) leukemia = system: HL-60(TB) leukemia
786-0 renal = system: 786-0 renal
KM12 colon = system: KM12 colon
SF-539 CNS = system: SF-539 CNS
HCC-2998 colon = system: HCC-2998 colon
ACHN renal = system: ACHN renal
MOLT-4 leukemia = system: MOLT-4 leukemia
A549 NSCLC = system: A549 NSCLC
OVCAR-5 ovarian = system: OVCAR-5 ovarian
SK-MEL-2 melanoma = system: SK-MEL-2 melanoma
MALME-3M melanoma = system: MALME-3M melanoma
DLD-1 colon = system: DLD-1 colon
SK-OV-3 ovarian = system: SK-OV-3 ovarian
NCI-H226 lung = system: NCI-H226 lung
HCT-15 colon = system: HCT-15 colon

Cc1cn2c(=O)c3ccccc3nc2s1
TGI (SW-620 colon): > 100 µM
TGI (SF-268 CNS): > 100 µM
TGI (SK-MEL-5 melanoma): > 100 µM
TGI (NCI-H522 lung): > 100 µM
TGI (A498 renal): > 100 µM
TGI (RXF 393 renal): > 100 µM
TGI (SF-295 CNS): > 100 µM
TGI (COLO 205 colon): > 100 µM
TGI (OVCAR-8 ovarian): > 100 µM
TGI (CCRF-CEM leukemia): > 100 µM
TGI (LOX IMVI melanoma): > 100 µM
TGI (NCI-H460 lung): > 100 µM
TGI (UO-31 renal): > 100 µM
TGI (SR leukemia): > 100 µM
TGI (TK-10 renal): > 100 µM
TGI (OVCAR-4 ovarian): > 100 µM
TGI (SN12C renal): > 100 µM
TGI (SNB-78 CNS): > 100 µM
TGI (CAKI-1 renal): > 100 µM
TGI (KM20L2 colon): > 100 µM
TGI (UACC-257 melanoma): > 100 µM
TGI (SNB-19 CNS): > 100 µM
TGI (K-562 leukemia): > 100 µM
TGI (NCI-H23 lung): > 100 µM
TGI (DMS 114 small cell lung): > 100 µM
TGI (M14 melanoma): > 100 µM
TGI (SK-MEL-28 melanoma): > 100 µM
TGI (HOP-62 NSCLC): > 100 µM
TGI (U251 CNS): > 100 µM
TGI (HT29 colon): > 100 µM
TGI (EKVX NSCLC): > 100 µM
TGI (LXFL 529 NSCLC): > 100 µM
TGI (IGROV1 ovarian): > 100 µM
TGI (DMS 273 small cell lung): > 100 µM
TGI (RPMI-8226 leukemia): > 100 µM
TGI (M19-MEL melanoma): > 100 µM
TGI (SNB-75 CNS): > 100 µM
TGI (OVCAR-3 ovarian): > 100 µM
TGI (HCT-116 colon): > 100 µM
TGI (HOP-92 NSCLC): > 100 µM
TGI (UACC-62 melanoma): > 100 µM
TGI (HL-60(TB) leukemia): > 100 µM
TGI (786-0 renal): > 100 µM
TGI (KM12 colon): > 100 µM
TGI (SF-539 CNS): > 100 µM
TGI (HCC-2998 colon): > 100 µM
TGI (ACHN renal): > 100 µM
TGI (MOLT-4 leukemia): > 100 µM
TGI (A549 NSCLC): > 100 µM
TGI (OVCAR-5 ovarian): > 100 µM
TGI (SK-MEL-2 melanoma): > 100 µM
TGI (MALME-3M melanoma): > 100 µM
TGI (DLD-1 colon): > 100 µM
TGI (SK-OV-3 ovarian): > 100 µM
TGI (NCI-H226 lung): > 100 µM

O=C(/C=C/c1c(O)ccc2ccccc12)c1ccc2ccccc2c1
TGI (SW-620 colon): > 100 µM
TGI (SF-268 CNS): > 100 µM
TGI (NCI-H522 lung): > 100 µM
TGI (A498 renal): > 100 µM
TGI (RXF 393 renal): > 100 µM
TGI (SF-295 CNS): > 100 µM
TGI (COLO 205 colon): > 100 µM
TGI (OVCAR-8 ovarian): > 100 µM
TGI (CCRF-CEM leukemia): > 100 µM
TGI (LOX IMVI melanoma): > 100 µM
TGI (NCI-H460 lung): > 100 µM
TGI (UO-31 renal): > 100 µM
TGI (TK-10 renal): > 100 µM
TGI (OVCAR-4 ovarian): > 100 µM
TGI (SN12C renal): > 100 µM
TGI (SNB-78 CNS): > 100 µM
TGI (CAKI-1 renal): > 100 µM
TGI (KM20L2 colon): > 100 µM
TGI (UACC-257 melanoma): > 100 µM
TGI (SNB-19 CNS): > 100 µM
TGI (K-562 leukemia): > 100 µM
TGI (NCI-H23 lung): > 100 µM
TGI (DMS 114 small cell lung): > 100 µM
TGI (SK-MEL-28 melanoma): > 100 µM
TGI (HOP-62 NSCLC): > 100 µM
TGI (U251 CNS): > 100 µM
TGI (HT29 colon): > 100 µM
TGI (EKVX NSCLC): > 100 µM
TGI (IGROV1 ovarian): > 100 µM
TGI (DMS 273 small cell lung): > 100 µM
TGI (RPMI-8226 leukemia): > 100 µM
TGI (M19-MEL melanoma): 35.9 µM
TGI (SNB-75 CNS): > 100 µM
TGI (OVCAR-3 ovarian): > 100 µM
TGI (HCT-116 colon): > 100 µM
TGI (HOP-92 NSCLC): > 100 µM
TGI (UACC-62 melanoma): > 100 µM
TGI (HL-60(TB) leukemia): > 100 µM
TGI (786-0 renal): > 100 µM
TGI (HCT-15 colon): > 100 µM
TGI (KM12 colon): > 100 µM
TGI (SF-539 CNS): > 100 µM
TGI (HCC-2998 colon): > 100 µM
TGI (ACHN renal): > 100 µM
TGI (MOLT-4 leukemia): > 100 µM
TGI (A549 NSCLC): > 100 µM
TGI (OVCAR-5 ovarian): > 100 µM
TGI (SK-MEL-2 melanoma): > 100 µM
TGI (MALME-3M melanoma): > 100 µM
TGI (DLD-1 colon): > 100 µM
TGI (SK-OV-3 ovarian): > 100 µM
TGI (NCI-H226 lung): > 100 µM
